Data: US5030760A, “Tetrahydrophthalimides, and their production and use” (Sumitomo Chemical Company, Ltd., priority 1981, dated 1991)

System: arrowhead
Assay: Test Example 7, flooded paddy pot dripping, herbicidal activity; note: ranges in brackets are in %
Format: in vivo, Sagittaria pygmaea
Conditions: 3 weeks
Experimental: The application of the tetrahydrophthalimides (I) as herbicides will be illustratively shown in the following Examples wherein the phytotoxicity to cultivated plants and the herbicidal activity on weeds were evaluated as follows: the aerial parts of the test plants were cut off and weighed (fresh weight); the percentage of the fresh weight of the treated plant to that of the untreated plant was calculated with the latter fresh weight taken as 100; and the crop damage and the herbicidal activity were evaluated by the standard given in the table below. The rating values of phytotoxicity, 0 and 1, and those of herbicidal effect, 5 and 4, are generally regarded as satisfactory to protect cultivated plants and control weeds, respectively. The rating values in the paddy field test alone were calculated from the dry weight of the test plants.
Wagner's pots (1/5000 are) were filled with paddy field soil and water was poured therein to make a flooded condition. Rice seedlings of the 3-leaf stage were transplanted and tubers of slender spikerush and arrowhead and the seeds of barnyardgrass, monochoria and broad-leaved weed were sowed therein and grown for 5 days. When germination occurs, a designed amount of the test compound formulated into an emulsifiable concentrate according to Preparation Example 2 was applied to the pots by dripping. The test plants were grown for a further 3 weeks, and herbicidal activity and phytotoxicity were examined. The herbicidal activity was evaluated in figures ranging from 0 to 5. The phytotoxicity to the crop plants was also indicated on the same standard as that of the herbicidal activity.

In the case of `O=C1C2=C(CCCC2)C(=O)N1c1ccc(Cl)cc1F` [A, 2-fluoro-4-chlorophenyltetrahydrophthalimide, reference compound], the “Herbicidal activity, Allowhead” value (2.5 g/are) is reported as 2 (30-49), the “Herbicidal activity, Allowhead” value (5 g/are) is reported as 3 (50-69) and the “Herbicidal activity, Allowhead” value (10 g/are) is reported as 3 (50-69).
